Experimental data: ChEMBL document CHEMBL1201862, “PubChem BioAssay data set” (2004)
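Interpolation was linear, between the two tested concentrations surrounding the appropriate level; five concentrations were tested over 48 hours in 96-well plates. GI50 marks 50% less growth.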 Calls of active or inactive are those of the source. Cut-off read from the data, not from the text of the source: active = GI50 up to about 1.1 µM and inactive = higher.

Columns and labels:
Assay in all cases: DTP human tumour cell line panel, 48 h
786-0 = tested on: 786-0
A498 = tested on: A498
BT-549 = tested on: BT-549
CCRF-CEM = tested on: CCRF-CEM
COLO 205 = tested on: COLO 205
EKVX = tested on: EKVX
HCT-15 = tested on: HCT-15
HOP-62 = tested on: HOP-62
HOP-92 = tested on: HOP-92
Hs-578T = tested on: Hs-578T
IGROV-1 = tested on: IGROV-1
NCI-H522 = tested on: NCI-H522
PC-3 = tested on: PC-3
RXF 393 = tested on: RXF 393
SNB-19 = tested on: SNB-19
SR = tested on: SR
T47D = tested on: T47D
U-251 = tested on: U-251
UACC-257 = tested on: UACC-257
UO-31 = tested on: UO-31

Row | SMILES | GI50 (786-0) | GI50 (A498) | GI50 (BT-549) | GI50 (CCRF-CEM) | GI50 (COLO 205) | GI50 (EKVX) | GI50 (HCT-15) | GI50 (HOP-62) | GI50 (HOP-92) | GI50 (Hs-578T) | GI50 (IGROV-1) | GI50 (NCI-H522) | GI50 (PC-3) | GI50 (RXF 393) | GI50 (SNB-19) | GI50 (SR) | GI50 (T47D) | GI50 (U-251) | GI50 (UACC-257) | GI50 (UO-31)
1 | CC(C)(C)OC(=O)N1CC(O)O[C@H](c2ccccc2)[C@@H]1c1ccccc1 (stereo not given in full) | 27.9 µM (inactive) | 21.4 µM (inactive) | 17.8 µM (inactive) | 21.6 µM (inactive) | 31 µM (inactive) | 19.5 µM (inactive) | 18 µM | 16.3 µM (inactive) | 16.7 µM (inactive) | 32.4 µM (inactive) | 18.9 µM (inactive) | 21.2 µM (inactive) | 14.7 µM (inactive) | 15.1 µM (inactive) | 15.7 µM (inactive) | 16.7 µM (inactive) | 31.1 µM (inactive) | 14.4 µM (inactive) | 17.7 µM (inactive) | 17.6 µM (inactive)
2 | CC(C)=CCOc1cc(NC(=S)c2ccoc2C)ccc1Cl [UC 781] | > 100 µM (inactive) | > 100 µM (inactive) | > 100 µM (inactive) | 39.6 µM (inactive) | > 100 µM (inactive) | > 100 µM (inactive) | > 100 µM | 84.1 µM (inactive) | 8.77 µM (inactive) | 48.6 µM (inactive) | 65.2 µM (inactive) | > 100 µM (inactive) | > 100 µM (inactive) | > 100 µM (inactive) | 81.1 µM (inactive) | > 100 µM (inactive) | 5.07 µM (inactive) | 48.5 µM (inactive) | > 100 µM (inactive) | > 100 µM (inactive)
